From PubChem BioAssay AID1963847 (Molecular Pharmacology Branch, DTP, NCI, 2024)

Test system: 415267-285-R-J2-PDC complex spheroid viability
Test: Anticancer human tumor 415267-285-R-J2-PDC patient-derived breast carcinoma cell line growth inhibition [POLQ]
Conditions: for IC50: curve of first compound; for viability, T/C: stronger effect = lower value
Outline: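 PDC + HUVEC + MSC complex spheroids; POLQ inhibitors ± partner drugs; top conc. at/near clinical Cmax, else 10 microM (SN-38 1 microM), half-log dilutions; 37 degrees C, 5% CO2.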
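Note: spheroids exposed to compounds for one week before readout.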
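Throughout, for viability, T/C: luminescence used as stand-in measure of viable cells; 100% = DMSO vehicle control viability.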

Compound: CC(=O)O[C@H]1C(=O)[C@@]2(C)[C@H]([C@H](OC(=O)c3ccccc3)[C@]3(O)C[C@H](OC(=O)[C@H](O)[C@@H](NC(=O)c4ccccc4)c4ccccc4)C(C)=C1C3(C)C)[C@]1(OC(C)=O)CO[C@@H]1C[C@@H]2O + Cc1cccc(N(C)C(=O)C2C(O)CCN2c2nc(C)cc(C(F)(F)F)c2C#N)c1
- IC50 (second compound 0.0316 µM): < 9.49 nM
- IC50 (second compound 0.1 µM): < 9.49 nM
- IC50 (second compound 0.316 µM): < 9.49 nM
- IC50 (second compound 1 µM): < 9.49 nM
- IC50 (second compound 3.16 µM): < 9.49 nM
- IC50 (second compound 10 µM): < 9.49 nM
- viability, T/C (second compound 0.0316 µM, first compound 0.00949 µM): 17.5%
- viability, T/C (second compound 0.0316 µM, first compound 0.03 µM): 9.49%
- viability, T/C (second compound 0.0316 µM, first compound 0.0949 µM): 9.45%
- viability, T/C (second compound 0.0316 µM, first compound 0.3 µM): 5.12%
- viability, T/C (second compound 0.0316 µM, first compound 0.949 µM): 6.11%
- viability, T/C (second compound 0.0316 µM, first compound 3 µM): 8.5%
- viability, T/C (second compound 0.1 µM, first compound 0.00949 µM): 14.3%
- viability, T/C (second compound 0.1 µM, first compound 0.03 µM): 10.3%
- viability, T/C (second compound 0.1 µM, first compound 0.0949 µM): 6.91%
- viability, T/C (second compound 0.1 µM, first compound 0.3 µM): 5.82%
- viability, T/C (second compound 0.1 µM, first compound 0.949 µM): 6.96%
- viability, T/C (second compound 0.1 µM, first compound 3 µM): 7.65%
- viability, T/C (second compound 0.316 µM, first compound 0.00949 µM): 15.2%
- viability, T/C (second compound 0.316 µM, first compound 0.03 µM): 10.9%
- viability, T/C (second compound 0.316 µM, first compound 0.0949 µM): 8.77%
- viability, T/C (second compound 0.316 µM, first compound 0.3 µM): 8.04%
- viability, T/C (second compound 0.316 µM, first compound 0.949 µM): 7.71%
- viability, T/C (second compound 0.316 µM, first compound 3 µM): 6.2%
- viability, T/C (second compound 1 µM, first compound 0.00949 µM): 16.9%
- viability, T/C (second compound 1 µM, first compound 0.03 µM): 8.87%
- viability, T/C (second compound 1 µM, first compound 0.0949 µM): 7.59%
- viability, T/C (second compound 1 µM, first compound 0.3 µM): 5.96%
- viability, T/C (second compound 1 µM, first compound 0.949 µM): 7.86%
- viability, T/C (second compound 1 µM, first compound 3 µM): 7.38%
- viability, T/C (second compound 3.16 µM, first compound 0.00949 µM): 13.7%
- viability, T/C (second compound 3.16 µM, first compound 0.03 µM): 9.96%
- viability, T/C (second compound 3.16 µM, first compound 0.0949 µM): 7.09%
- viability, T/C (second compound 3.16 µM, first compound 0.3 µM): 7.4%
- viability, T/C (second compound 3.16 µM, first compound 0.949 µM): 6.8%
- viability, T/C (second compound 3.16 µM, first compound 3 µM): 8.17%
- viability, T/C (second compound 10 µM, first compound 0.00949 µM): 12.7%
- viability, T/C (second compound 10 µM, first compound 0.03 µM): 10%
- viability, T/C (second compound 10 µM, first compound 0.0949 µM): 8.12%
- viability, T/C (second compound 10 µM, first compound 0.3 µM): 8.5%
- viability, T/C (second compound 10 µM, first compound 0.949 µM): 8.14%
- viability, T/C (second compound 10 µM, first compound 3 µM): 9.36%

Compound: CC[C@@]1(O)C(=O)OCc2c1cc1n(c2=O)Cc2cc3c(CN(C)C)c(O)ccc3nc2-1 + Cc1cccc(N(C)C(=O)C2C(O)CCN2c2nc(C)cc(C(F)(F)F)c2C#N)c1
- IC50 (second compound 0.0316 µM): 19.8 nM
- IC50 (second compound 0.1 µM): 18.8 nM
- IC50 (second compound 0.316 µM): 20.6 nM
- IC50 (second compound 1 µM): 18.9 nM
- IC50 (second compound 3.16 µM): 18.5 nM
- IC50 (second compound 10 µM): 18.2 nM
- viability, T/C (second compound 0.0316 µM, first compound 0.000316 µM): 90.7%
- viability, T/C (second compound 0.0316 µM, first compound 0.001 µM): 102%
- viability, T/C (second compound 0.0316 µM, first compound 0.00316 µM): 103%
- viability, T/C (second compound 0.0316 µM, first compound 0.01 µM): 90.9%
- viability, T/C (second compound 0.0316 µM, first compound 0.0316 µM): 22%
- viability, T/C (second compound 0.0316 µM, first compound 0.1 µM): 7.7%
- viability, T/C (second compound 0.1 µM, first compound 0.000316 µM): 96.9%
- viability, T/C (second compound 0.1 µM, first compound 0.001 µM): 96.9%
- viability, T/C (second compound 0.1 µM, first compound 0.00316 µM): 101%
- viability, T/C (second compound 0.1 µM, first compound 0.01 µM): 86.5%
- viability, T/C (second compound 0.1 µM, first compound 0.0316 µM): 19.9%
- viability, T/C (second compound 0.1 µM, first compound 0.1 µM): 7.92%
- viability, T/C (second compound 0.316 µM, first compound 0.000316 µM): 102%
- viability, T/C (second compound 0.316 µM, first compound 0.001 µM): 98%
- viability, T/C (second compound 0.316 µM, first compound 0.00316 µM): 102%
- viability, T/C (second compound 0.316 µM, first compound 0.01 µM): 104%
- viability, T/C (second compound 0.316 µM, first compound 0.0316 µM): 19.2%
- viability, T/C (second compound 0.316 µM, first compound 0.1 µM): 9.41%
- viability, T/C (second compound 1 µM, first compound 0.000316 µM): 101%
- viability, T/C (second compound 1 µM, first compound 0.001 µM): 96.4%
- viability, T/C (second compound 1 µM, first compound 0.00316 µM): 107%
- viability, T/C (second compound 1 µM, first compound 0.01 µM): 89.5%
- viability, T/C (second compound 1 µM, first compound 0.0316 µM): 18.1%
- viability, T/C (second compound 1 µM, first compound 0.1 µM): 7.15%
- viability, T/C (second compound 3.16 µM, first compound 0.000316 µM): 98.5%
- viability, T/C (second compound 3.16 µM, first compound 0.001 µM): 102%
- viability, T/C (second compound 3.16 µM, first compound 0.00316 µM): 92%
- viability, T/C (second compound 3.16 µM, first compound 0.01 µM): 91.7%
- viability, T/C (second compound 3.16 µM, first compound 0.0316 µM): 13.8%
- viability, T/C (second compound 3.16 µM, first compound 0.1 µM): 8.04%
- viability, T/C (second compound 10 µM, first compound 0.000316 µM): 108%
- viability, T/C (second compound 10 µM, first compound 0.001 µM): 96.2%
- viability, T/C (second compound 10 µM, first compound 0.00316 µM): 104%
- viability, T/C (second compound 10 µM, first compound 0.01 µM): 85.6%
- viability, T/C (second compound 10 µM, first compound 0.0316 µM): 17.1%
- viability, T/C (second compound 10 µM, first compound 0.1 µM): 9.1%
